Test results from ChEMBL document CHEMBL5729609, “Indoleamine-2,3-dioxygenase inhibitor, preparation method therefor and use thereof” (2023).

Target: Indoleamine 2,3-dioxygenase 1 (Homo sapiens, UniProt P14902)
Experiment: Inhibitory Activity Assay: IDO1 (His-tag) enzyme(BPS Bioscience), L-tryptophan (Sigma), methylene blue (Sigma), Catalase originated from the liver of cattle (Sigma), L-ascorbic acid (Sigma), glycerol (Sigma), potassium dihydrogen phosphate solution (Sigma), Tween 20 (Sigma), automatic sampling platformLiquid handler (Bravo & Echo), microplate ReaderSpectraMax M5e (Molecular Devices). Test Method of Compounds: The Compounds are Determined by Absorbance Test Method:The tested compounds are dissolved in DMSO to prepare a high concentration of storage solution. The stock solution of reference compound was diluted with DMSO to prepare a 100× solution. In the first column of the working plate, 8 μL above tested compounds and 8 μL 100× reference compound were respectively added as the highest concentration, and then the highest concentrations were subjected to three times dilution to obtain 11 concentrations and prepare 100× solution. 0.5 μL solution was transferred from the above plate to the detection plate. To each well was added 0.5 μL 100× compound solution. For HPE and ZPE control wells, 0.5 μL 100% DMSO was added. 25 μL 2×IDO1 (His-tag) enzyme solution (containing L-ascorbic acid, methylene blue, and catalase) was added to each well. 25 μL reaction solution without IDO1 (His-tag) enzyme was added into HPE control well. The test plate was centrifugated at 1000 rpm for 1 minute to mix well. Then, the test plate was incubated at room temperature for 30 minutes. 25 μL above 2× substrate (L-tryptophan) solution was added to each well. The test plate was centrifugated at 1000 rpm for 1 minute to mix well. The detection plate was placed on ELISA (SpectraMax M5e), the temperature was set at 25° C., and the absorbance (OD value) was measured at 320 nm every 10 minutes till 60 minutes.<p id="p-0313" num="0311">Calculating the increase ratio of absorbance: the slope of the absorbance increase curve from 10 min to 60 min is derived from SpectralMax M5e. […]

Sequence of Indoleamine 2,3-dioxygenase 1 (P14902 whole entry): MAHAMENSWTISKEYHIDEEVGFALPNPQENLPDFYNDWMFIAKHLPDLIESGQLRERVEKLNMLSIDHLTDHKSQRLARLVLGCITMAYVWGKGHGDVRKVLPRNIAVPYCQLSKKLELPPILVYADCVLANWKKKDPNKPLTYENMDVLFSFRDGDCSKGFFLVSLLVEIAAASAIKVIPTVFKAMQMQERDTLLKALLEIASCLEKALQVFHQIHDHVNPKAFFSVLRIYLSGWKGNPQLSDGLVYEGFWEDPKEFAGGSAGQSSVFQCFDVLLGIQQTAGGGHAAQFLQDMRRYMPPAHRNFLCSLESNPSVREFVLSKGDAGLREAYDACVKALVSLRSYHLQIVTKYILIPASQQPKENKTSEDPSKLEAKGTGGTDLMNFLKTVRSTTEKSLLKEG

SMILES | IC50
CNS(=O)(=O)CCCNc1nonc1/C(=N/O)Nc1ccc(F)c(Br)c1 | 49 nM
CC(C)NS(=O)(=O)CCCNc1nonc1/C(=N/O)Nc1ccc(F)c(Br)c1 | 281 nM
CCNS(=O)(=O)CCCNc1nonc1C(=NO)Nc1ccc(F)c(Br)c1 | 172 nM
